The source of these data is US20260109721A1, “IONIZABLE CATIONIC LIPIDS INCORPORATING SILICON: SYNTHESIS AND LNP FORMULATION” (priority 2023, published 2026).

Data set [1] in a line: LNP size, PDI and zeta potential by Dynamic Light Scattering (Method A). The settings on record: LNP formulated with the lipid, DLS. It counts as physicochemical. The method, then:
(§1) The synthesized lipids were tested in term of in vitro transfection efficacy and toxicity on HeLa cells. In order to perform the mentioned biological tests, appropriate LNPs had to be formulated from the synthesized lipids. The formulation technique was different in Method A and B. The particle size, polydispersity index (PDI) and zeta potential of resulting LNPs were determined by means of Dynamic Light Scattering technique (DLS). Prior to biological testing the encapsulation efficiency (EE) of the loaded LNPs was determined by using RiboGreen RNA assay. In case of Method A Luc mRNA while in case of Method B GFP mRNA was transfected into the cells. In parallel with the transfection experiments, toxicity of the investigated LNPs was determined, in case of Method A resazurin assay while in case of Method B MTT assay was used. Additionally, the toxicity of the lipids was investigated on HepG2 cells and IC50 values were determined.
• 1. If needed, prepare stock solutions by solving known amounts of lipid powder into an appropriate solvent. The recommended solvent is ethanol and the recommended concentration is typically in the range 10-50 mM. Higher concentrations are preferred to allow flexibility on mRNA-LNP concentration. • 2. Remove the lipid stock solutions from the −20° C. freezer. For long-term storage, −80° C. is used. • 3. Check the vials for precipitation, DOPE (CAS #4004-05-1) (20 mM) and DSPE-PEG (CAS #474922-26-4) (5 mM) may need a 5-30 minute incubation step at 37° C. with intermittent vortexing to resuspend all contents. […] As a last resort, lipids may be heated to 50° C. to resuspend, time should be kept as short as possible to prevent oxidation or other modifying or degradative processes. • 4. Mix the lipids by vortexing for 2 minutes. • 5. […] Cooling the solution prevent excessive evaporation of ethanol or similar solvents upon opening. • 6. Meanwhile, thaw the RNA samples, including the latest SecNLuc control, by inserting the frozen tube in a room temperature aluminium block. • 7. Prepare for each LNP-formulation with identical mRNA component, an RNA master mix according to Table 1 below in a fresh tube. Use of a master mix allows more precise comparison of lipid formulations relative to each other. Split the master mix over a number of fresh tubes equal to the number of samples+controls. Each tube contains 375 μl of mRNA in 10 mM Citrate pH 4.0. • 8. Prepare for each LNP formulation with identical lipid composition a Lipid master mix according to Table 1 below in a fresh tube, exclude the lipid of interest. Use of a master mix allows more precise comparison of the novel ionizable lipid relative to each other. Split the master mix over a number of fresh tubes equal to the number of samples+controls. Each tube contains 65.5 μl of lipid master mix. • 9. Add the ionizable lipid of interest to the equally divide lipid master mix. Mix well by pipetting up and down. Label the tube according to the ionizable lipid used. • 10. Power on the L1 FM (L1 Formulation Machine uses 2 high-speed syringe pumps to mix lipids in organic solvents with mRNA in acidic aquous solution to generate well-defined LNPs. The microfluidic mixing chip involves a dean-type structure performing the high-efficiency mixing at a total flow rate (TFR) of around 12 ml/min at a 3:1 mixing ratio) and allow it to do a calibration of motor positions.
• 18. Fill a fresh syringe (C) through a blunt 18G stainless steel needle with the previously prepared RNA mixture of step 6. The volume should be approximately 85% of total formulation volume+25 μl (dead-volume). Make sure to remove all air bubbles by tapping. • 19. Fill a fresh syringe (D) through a blunt 18G stainless steel needle with the Lipid master mix. The volume should be approximately […] of total formulation volume+25 μl (dead-volume). Again, Make sure to remove all bubbles. • 20. Attach the syringes in the correct orientation, syringe A on the left and syringe B on the right • 21.

The nature of data set [2]: Encapsulation efficiency of loaded LNPs, RiboGreen RNA assay (Method A). Type of data set: physicochemical. The settings on record: encapsulation efficiency of mRNA-loaded LNP, Method A, RiboGreen. As for the experimental part:
as §1
• 1. Preparation of sample stock solutions: In the top row of the 96-well plate (Row A in the plate), add 297 μL of TE buffer pH 7.4 (see Table 1) to a single well for each sample plus a single well for a PBS blank using a multichannel pipette.
• 2. Add 3 μL of sample (at 0.5 mg/ml) to these wells for a final volume of 300 μL. Add 3 μL of PBS to the blank well. Pipette to mix. This is your stock solution for each sample. The final RNA concentration of these stock solutions should be approximately 4-7 μg/mL. • 3. mRNA-LNP sample setup: • a. Add 50 μL of TE buffer pH 7.5 to the two wells directly below each sample (Rows B and C in the plate). • b. Add 50 μL of sample stock solution from Row A into the wells in Rows B and C (this assay is run in duplicate. All liquid handling should be done using a multichannel pipette). • c. Add 50 μL of Triton buffer to the wells in Rows D and E (in the plate) below each sample. • d. Add 50 μL of sample stock solution from Row A into the wells in Rows D and E. • 4. RiboGreen RNA standard curve setup: Dilute the RNA standard to produce an RNA stock at a final concentration of 20 μg/mL in TE buffer pH 7.4. The final volume should be 150 μL. Set up a standard curve (in duplicate) as using the RNA stock (20 μg/mL siRNA), TE buffer pH 7.5, and Triton X-100 buffer according the Table 2 and Table 3 below.
• 5. Once samples and standard curve are plated, incubate the plate at 37° C. for 10 min to lyse mRNA-LNP in the presence of Triton X-100 buffer. • 6. Meanwhile, prepare RiboGreen Solution: Sum the total number of sample wells and standard curve wells. Add three to this number, and multiply the total by 100. This is the total volume, in μL, of RiboGreen Solution needed for this assay. In a 15 mL RNAse-free Falcon tube, dilute the RiboGreen Reagent 1:100 into TE buffer pH 7.5 to the total volume calculated. • 7. Addition of RiboGreen Solution and sample readings: Remove a 96-well plate from 37° C. incubator; let it cool to room temperature as RiboGreen binding is somewhat temperature dependent. Add 100 μL of RiboGreen Solution to each well. Pop any air bubbles with a needle. Read using fluorescent plate reader (excitation=480, emission=525). • 8. Sample analysis: Use the data generated by the RiboGreen standard curve to calculate the concentration of mRNA. Transfection Efficiency with Luciferase-mRNA (Method A)

On to `CCCCCCCCC(CCCCCC)C(=O)OCCCCCCN(CCCCO)CCCCCCOC(=O)C(CCCCCC)CCCCCCCC` (centres unmarked) [ALC-0315, reference compound], for which, in data set [1], the PDI stood at 0.007, the “Size (nm)” value is reported as 131.9 nm and the “Zeta potential (mV)” value was −12.32 mV. Further, in data set [2], the “EE (%)” value came out at 94%.
As for `CCCCC/C=C\C/C=C\CCCCCCCCOC(CCCCCN(CCO)CCO)O[Si](C)(C)OCCCCCCCC/C=C\C/C=C\CCCCC` (centres unmarked) [Example 39, (21Z,24Z)-3-(2-hydroxyethyl)-11,11-dimethyl-9-(((9Z,12Z)-octadeca-9,12-dien-1-yl)oxy)-10,12-dioxa-3-aza-11-silatriaconta-21,24-dien-1-ol], in data set [1], the PDI amounted to 0.072, the “Size (nm)” value came to 170.4 nm and the “Zeta potential (mV)” value is on record as −9.414 mV. Further, the “EE (%)” value in data set [2] is recorded as 87%.
As to `CCCCC/C=C\C/C=C\CCCCCCCCO[Si](C)(C)OC(CCCCCCC/C=C\C/C=C\CCCCC)OCCCCCCN(CCO)CCO` (centres unmarked) [Example 40, (23Z,26Z)-11-((8Z,11Z)-heptadeca-8,11-dien-1-yl)-3-(2-hydroxyethyl)-13,13-dimethyl-10,12,14-trioxa-3-aza-13-siladotriaconta-23,26-dien-1-ol], in data set [1], the PDI is listed as 0.020, the “Size (nm)” value stood at 152.7 nm and the “Zeta potential (mV)” value is −8.912 mV. Also, in data set [2], the “EE (%)” value worked out at 87%.
As to `CCCCCCCC/C=C\CCCCCCCCOC(CCCCCCCCCCCCCCC)O[Si](C)(C)OCCCCCCN(CCO)CCO` (centres unmarked) [Example 41, (Z)-3-(2-hydroxyethyl)-11,11-dimethyl-13-pentadecyl-10,12,14-trioxa-3-aza-11-siladotriacont-23-en-1-ol], in data set [1], the PDI was determined as 0.031, the “Size (nm)” value is recorded as 144.2 nm and the “Zeta potential (mV)” value is −8.54 mV. The “EE (%)” value in data set [2] worked out at 78%.
Turning to `CCCCCCCC/C=C\CCCCCCCC(OCCCCCCCCCCCCCCCC)O[Si](C)(C)OCCCCCCN(CCO)CCO` (centres unmarked) [Example 42, (Z)-13-(heptadec-8-en-1-yl)-3-(2-hydroxyethyl)-11,11-dimethyl-10,12,14-trioxa-3-aza-11-silatriacontan-1-ol], in data set [1], the PDI turned out to be 0.059, the “Size (nm)” value is given as 129.0 nm and the “Zeta potential (mV)” value is −8.408 mV. For the same compound, the “EE (%)” value in data set [2] was determined as 87%.
For the compound `CCCCC/C=C\C/C=C\CCCCCCCCOC(CCCCCCCCCCCCCCC)O[Si](C)(C)OCCCCCCN(CCO)CCO` (centres unmarked) [Example 43, (23Z,26Z)-3-(2-hydroxyethyl)-11,11-dimethyl-13-pentadecyl-10,12,14-trioxa-3-aza-11-siladotriaconta-23,26-dien-1-ol], in data set [1], the PDI is reported as 0.006, the “Size (nm)” value stood at 144.9 nm and the “Zeta potential (mV)” value is −7.944 mV. Besides, the “EE (%)” value in data set [2] was determined as 83%.
On the same counts, the results for `CCCCC/C=C\C/C=C\CCCCCCCC(OCCCCCCCCCCCCCCCC)O[Si](C)(C)OCCCCCCN(CCO)CCO` (centres unmarked) [Example 44, 13-((8Z,11Z)-heptadeca-8,11-dien-1-yl)-3-(2-hydroxyethyl)-11,11-dimethyl-10,12,14-trioxa-3-aza-11-silatriacontan-1-ol] are 0.083, 131.2 nm, −8.273 mV and 82%.
For the compound `CCCCC/C=C\C/C=C\CCCCCCCC(OCCCCCCCC/C=C\CCCCCCCC)O[Si](C)(C)OCCCCCCN(CCO)CCO` (centres unmarked) [Example 45, (Z)-13-((8Z,11Z)-heptadeca-8,11-dien-1-yl)-3-(2-hydroxyethyl)-11,11-dimethyl-10,12,14-trioxa-3-aza-11-siladotriacont-23-en-1-ol], in data set [1], the PDI was determined as 0.043, the “Size (nm)” value is 136.8 nm and the “Zeta potential (mV)” value is given as −8.85 mV. Further, the “EE (%)” value in data set [2] was 82%.
